These are literature values, as cited in patent US8034921B2, “IRNA agents targeting CCR5 expressing cells and uses thereof” (Alnylam Pharmaceuticals, Inc., priority 2006, dated 2011).

The target in data set [1] is T1, CCR5 (Homo sapiens, UniProt P51681). Set-up: expressed in transfected cells; host or cells: CHO cells. To be noted: CCR5-expressing CHO cells; read-out: IC50, inhibition of [125I]RANTES binding.
Data set [2] addresses cyano CCR5 (Macaca fascicularis, UniProt P61814). To be noted: cyano CCR5, transfected CHO cell membranes; read-out: IC50, CCR5 binding against [125I]MI-1α.
Data set [3] addresses T1, CCR5. To be noted: read-out: IC50, inhibition of [125I]MIP-1α binding.
Data set [4] has as its target T1, CCR5. Set-up: expressed in transfected cells; host or cells: CHO cells. As to conditions: membranes from CHO cells stably expressing recombinant human CCR5; read-out: IC50, binding of [125I]RANTES.
Data set [5] concerns HIV-infected patients.
The conditions of data set [6]: in vivo.
In data set [7] the target is HIV-1 gp120/CCR5 (Homo sapiens, UniProt P51681). As to conditions: read-out: IC50, HIV-1 gp120/CCR5 binding.
Chain of HIV-1 gp120/CCR5 (P51681 whole entry): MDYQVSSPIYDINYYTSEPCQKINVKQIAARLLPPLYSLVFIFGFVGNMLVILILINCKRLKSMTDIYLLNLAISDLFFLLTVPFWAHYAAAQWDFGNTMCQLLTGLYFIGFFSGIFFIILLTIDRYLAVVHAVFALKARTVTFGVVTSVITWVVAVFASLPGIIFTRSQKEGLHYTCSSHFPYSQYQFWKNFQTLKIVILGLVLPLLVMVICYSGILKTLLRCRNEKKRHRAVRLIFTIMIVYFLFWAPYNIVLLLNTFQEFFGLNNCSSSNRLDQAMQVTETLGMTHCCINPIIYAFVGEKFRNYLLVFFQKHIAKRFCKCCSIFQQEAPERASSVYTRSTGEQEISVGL
Data set [8] has as its system R5 HIV-1 isolates.
For data set [9] the following is noted: rodents.
The conditions of data set [10]: healthy volunteers.
Data set [11] deals with T1, CCR5. Set-up: expressed in transfected cells; host or cells: CHO cells. To be noted: CHO cells expressing recombinant human CCR5.

Like-named read-outs stand apart in the source and are kept apart here.

T1 sequence (P51681 whole entry): as above

With `CS(=O)(=O)N1CCC(C(=O)N(CCCN2CCC(Cc3ccc(S(N)(=O)=O)cc3)CC2)c2ccc(Cl)c(Cl)c2)CC1` [Compound 9a], the IC50 in data set [1] is 3.4 nM.

As to `Cc1cccc(C)c1C(=O)N1CCC(C)(N2CCC(N(Cc3ccccc3)c3ccccc3)CC2)CC1` [Compound 19], the IC50 in data set [2] was 0.7 nM.

For the compound `C=CCN(C(=O)OCc1ccc([N+](=O)[O-])cc1)C1CCN(CCC(C)(CN(C)S(=O)(=O)c2ccccc2)c2ccccc2)CC1` (stereo not shown) [Compound 21], the IC50 in data set [3] was 4.4 nM.

`CCN(C(=O)Nc1ccc(S(C)(=O)=O)cc1)C1CCN(CCC(c2ccccc2)c2ccccc2)CC1` [Compound 7]: the IC50 in data set [4] is 49 nM.

In the case of `CN(C)S(=O)(=O)c1ccc(CC2CCN(CCCN(C(=O)C3CCN(S(C)(=O)=O)CC3)c3ccc(Cl)c(Cl)c3)CC2)cc1` [Compound 9c], the IC50 in data set [1] is 1.2 nM.

Consider `COC[C@@H](c1ccc(C(F)(F)F)cc1)N1CCN(C2(C)CCN(C(=O)c3c(C)ncnc3C)CC2)C[C@@H]1C` [Compound 1], for which, in [5] (48 HIV-infected patients, phase I), the viral load result is given as “dose-dependent reduction in viral load”. Further, the cardiovascular side effects result in data set [5] (human, in vivo) is “no cardiovascular side effects”. The bioavailability (usually dose-corrected exposure relative to a reference, in per cent) in data set [6] is given as 100%.

`CNS(=O)(=O)c1ccc(CC2CCN(CCCN(C(=O)C3CCN(S(C)(=O)=O)CC3)c3ccc(Cl)c(Cl)c3)CC2)cc1` [Compound 9b]: in [1], the IC50 is 1.5 nM.

As to `CCCCN1C(=O)C(CC2CCCCC2)NC(=O)C12CCN(Cc1ccc3c(c1)OCCO3)CC2` (stereo not shown) [Compound 13], in data set [7], the IC50 was 1 nM. For the same compound, the “activity against a wide range of R5 HIV-1 isolates” value in data set [8] is listed as “potent activity”. The oral bioavailability result in data set [9] was “favorable”. In data set [10], the QTc prolongation entry was “some incidents of QTc prolongation” and the serious adverse events result was “No serious adverse events”. Moreover, the tolerated dose in [10] (multiple dosing twice a day) was 800 mg. In addition, in [10] (single dose), the tolerated dose was 1200 mg.

In the case of `CCCCOCCOc1ccc(-c2ccc3c(c2)C=C(C(=O)Nc2ccc(CN(C)C4CCOCC4)cc2)CCN3CC(C)C)cc1` [Compound 17b], the IC50 in [1] was 3.6 nM.

With `CCCCOCCOc1ccc(-c2ccc3c(c2)C=C(C(=O)Nc2ccc(CN(C)C4CCOCC4)cc2)CCS3(=O)=O)cc1` [Compound 17a], the IC50 in [1] was 27 nM.

Consider `CCN(C(=O)Cc1ccc(S(C)(=O)=O)cc1)C1CCN(C(C)CC(NC(=O)OC2CCOCC2)c2ccccc2)CC1` (stereo not shown) [Compound 3], for which, in [11], the “IC50 for inhibition of CCL3 and CCL5 binding” value is “sub-nanomolar range”.

Consider `O=C(Nc1ccc(Cl)cc1)N(CCCN1CCC(Cc2ccc(S(=O)(=O)N3CCOCC3)cc2)CC1)c1ccccc1` [Compound 15], for which, in data set [1], the IC50 is 1 nM.

For `CS(=O)(=O)N1CCC(C(=O)N(CCCN2CCC(Cc3ccc(S(=O)(=O)N4CCOCC4)cc3)CC2)c2ccc(Cl)c(Cl)c2)CC1` [Compound 9d], in [1], the IC50 is 1.3 nM.

As for `CCN(C(=O)Cc1ccc(S(=O)(=O)N(C)C)cc1)C1CCN(CCC(c2ccccc2)c2ccccc2)CC1` [Compound 5b], the IC50 in data set [4] is under 10 nM.
